Source: paper PMC6690782 (Bioorganic & medicinal chemistry letters, 2019)

Legend:
[1] = cited from earlier work
[2] = molecular target: LAT1 (Homo sapiens, UniProt Q01650); test: cis-inhibition assay: inhibition of [3H]-gabapentin uptake into HEK-hLAT1 cells; type: cell-based; conditions: for fold decrease in potency relative to corresponding histidine/tryptophan analog: cis-inhibition IC50, 7d vs 16, 13 vs 22
LAT1, sequence (Q01650 whole entry): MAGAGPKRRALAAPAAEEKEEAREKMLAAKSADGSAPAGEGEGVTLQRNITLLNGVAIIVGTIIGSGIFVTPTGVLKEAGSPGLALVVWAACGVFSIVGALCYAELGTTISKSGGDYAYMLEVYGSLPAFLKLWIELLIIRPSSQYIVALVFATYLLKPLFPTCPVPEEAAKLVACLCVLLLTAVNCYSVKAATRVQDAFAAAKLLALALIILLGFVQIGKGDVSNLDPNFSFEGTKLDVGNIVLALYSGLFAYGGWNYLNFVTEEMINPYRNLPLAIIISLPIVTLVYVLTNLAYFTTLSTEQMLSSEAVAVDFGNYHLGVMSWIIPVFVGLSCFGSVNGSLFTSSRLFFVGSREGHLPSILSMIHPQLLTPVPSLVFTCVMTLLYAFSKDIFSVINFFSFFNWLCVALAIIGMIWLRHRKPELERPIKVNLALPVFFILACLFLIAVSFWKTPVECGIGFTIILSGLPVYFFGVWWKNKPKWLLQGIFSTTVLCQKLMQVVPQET
LAT1, sequence (P08195 102-630 partner): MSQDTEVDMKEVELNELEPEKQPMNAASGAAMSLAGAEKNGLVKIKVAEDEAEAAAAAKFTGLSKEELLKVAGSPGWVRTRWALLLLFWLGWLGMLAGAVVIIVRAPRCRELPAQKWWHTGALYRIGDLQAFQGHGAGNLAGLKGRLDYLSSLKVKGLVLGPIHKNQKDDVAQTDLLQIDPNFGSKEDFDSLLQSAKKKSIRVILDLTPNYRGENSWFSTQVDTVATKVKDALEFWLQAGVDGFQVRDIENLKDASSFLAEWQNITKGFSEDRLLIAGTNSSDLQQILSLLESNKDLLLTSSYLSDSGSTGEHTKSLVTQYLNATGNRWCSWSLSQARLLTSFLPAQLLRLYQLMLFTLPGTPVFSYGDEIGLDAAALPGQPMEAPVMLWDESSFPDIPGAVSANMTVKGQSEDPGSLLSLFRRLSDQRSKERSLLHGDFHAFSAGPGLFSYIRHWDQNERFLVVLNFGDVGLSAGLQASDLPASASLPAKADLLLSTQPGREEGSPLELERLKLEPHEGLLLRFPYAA

Row | SMILES | fold decrease in potency relative to corresponding histidine/tryptophan analog [2] [fold] | inhibition at 200 µM [2] [%] | also measured
1 | c1c[nH]nn1 [1,2,3-triazole] | – | – | pKa of conjugate acid [1]: 1.15
2 | Cc1cn(C[C@H](N)C(=O)O)nn1 [Compound 7d] | 2 | – | –
3 | N[C@@H](Cc1cn(Cc2ccccc2)nn1)C(=O)O [Compound 11e] | – | -19 | –
4 | N[C@@H](Cn1nnc2ccccc21)C(=O)O [Compound 13] | 2 | – | –
5 | N[C@@H](Cc1cn(Cc2ccccc2)cn1)C(=O)O [Compound 17, reference compound] | – | 74 | –
